Measured values as given in article PMC12892976, “Alkylation-based optimization of antifungal FPPS inhibitors yields a potent, broad-spectrum lipophilic zoledronate derivative” (mBio, 2025).
≈ marks a conversion by molar mass, not a printed value.

Experiments:
Test in all cases: squalene rescue assay
Assay type in all cases: cell-based
A. fumigatus ATCC 204305 = details: Aspergillus fumigatus, ATCC204305, read-out: EC50 (squalene concentration rescuing 50% of growth)
Method: (§1) Squalene rescue assays were performed as described previously ([7]). […] After incubation at 35°C for 24 h (C. albicans), 48 h (A. fumigatus), or 72 h (C. neoformans), OD600 was measured in a BioTek ELx800 plate reader.

C. albicans SC5314 = details: Candida albicans, SC5314, read-out: EC50 (squalene concentration rescuing 50% of growth)
Method: as §1

C. neoformans H99 = details: Cryptococcus neoformans, H99, read-out: EC50 (squalene concentration rescuing 50% of growth)
Method: as §1

Compound `CC(C)=CCC/C(C)=C/CC/C(C)=C/CC/C=C(\C)CC/C=C(\C)CCC=C(C)C` [squalene] has an EC50 (A. fumigatus ATCC 204305) of 23.3 µg/mL (≈ 56.7 µM), an EC50 (C. albicans SC5314) of 12.4 µg/mL (≈ 30.3 µM) and an EC50 (C. neoformans H99) of 2.98 µg/mL (≈ 7.25 µM).
